Experiments:
ABCA4−/−/RDH8−/− mice = assay: HPLC analysis of 11-cis-retinal in eyes of ABCA4−/−/RDH8−/− mice; assay type: in vivo, mouse; conditions: HPLC peak area of 11-cis-retinal, No Treatment 88.2
Description: (§1) We tested 21 drugs containing primary amino groups to determine if they react with the aldehyde group of all-trans-RAL to reduce its toxic levels in the eye after exposure to light and prevent its condensation into toxic conjugates. […] For these experiments, we used ABCA4^−/−/RDH8^−/− mice as models for Stargardt's disease and AMD. We employed analytical methods for determining the pharmacodynamics and pharmacokinetics of candidate drugs including: HPLC/MS/MS for analysis of retinoids and histological sections and OCT for assessment of retinal pathology. The relative amount of retinoids and their composition strongly correlates with the health status of the retina. […] Methodologies for performing the analysis on ABCA4^−/−/RDH8^−/− mice is described below.
(§2) Abca4^−/− mice also were generated by standard procedures (Ingenious Targeting, Inc., Stony Brook, N.Y.). […] Rdh8^−/−Abca4^−/− mice were established by crossbreeding Abca4^−/− mice with Rdh8^−/− mice. […] PCR products were cloned and sequenced to verify their identities.
All experimental procedures related to extraction, derivatization, and separation of retinoids from dissected mouse eyes were carried out under dim red light. Two whole mouse eyes were homogenized in 1 ml of 50 mM phosphate buffer, pH 7.0, containing 50% ethanol and 10 mM NH2OH. Ice-cold methanol (1 ml) was added to the homogenates 20 min after incubation at room temperature (RT), non-polar retinoids were extracted twice with 4 ml of hexane. The organic phase was collected, dried down in a SpeedVac and re-solubilized in 0.3 ml of hexane. […] Retinoids were detected at 325 nm (retinyl esters and retinols) and 350 nm (retinyl oximes) with a diode array detector. Those of interest were quantified based on the areas under their peaks calculated with the help of HP Chemstation A.03.03 software and compared with areas calculated based on known amounts of synthetic standards plotted as a standard curve.

Rdh8−/−Abca4−/− mice = assay: SD-OCT grading of retinal degeneration in light-exposed Rdh8−/−Abca4−/− mice; assay type: in vivo, mouse; conditions: for effectiveness in treating retinal degeneration in the mice: ABCA4−/−/RDH8−/− mice, effective = OCT score at least about 2.5 and 11-cis-retinal increase at least about 30%; for Score OCT: Rdh8−/−Abca4−/− mice, SD-OCT 7 days after 10,000 lux illumination for 30 min at 4 weeks of age, score 5 = no degeneration, 1 = severe, No Treatment 1
Description: as §1, §2
Although analytical and histological methods provide exhaustive characterization of retina, they cannot be performed in vivo. To reduce the number of sacrificed animals and time required for analysis, SD-OCT from Bioptigen (Research Triangle Park, N.C.) was employed for in vivo imaging of mouse retinas. Bioptigen OCT systems utilize a narrow single-mode beam from a wide bandwidth light source to probe the structure of retina at a higher resolution (2.0 μm) than normal OCT systems. Mice were anesthetized by intraperitoneal (IP) injection of 20 μl/g bw of 6 mg/ml ketamine and 0.44 mg/ml xylazine diluted with 10 mM sodium phosphate, pH 7.2, containing 100 mM NaCl. Pupils were dilated with 1% tropicamide. In vivo SD-OCT images were obtained from both eyes. Four pictures acquired in a B-scan mode were used to construct the final averaged images (FIG. 8).
In vivo retinal structures of Rdh8^−/−Abca4^−/− mice are imaged by SD-OCT 7 days after 10,000 lux illumination for 30 min at 4 weeks of age.

[1] = Formation of Schiff base between retinal and selected amines (UV/Vis spectra); assay type: physicochemical; conditions: 90% ethanol in water, 0.1 M phosphate buffer pH 7.0, 2 molar excess of amine, 1 h room temperature
Method: Formation of conjugates (Schiff-base) between retinal and primary amine compounds containing amino group (putative drugs) is the key mechanism to control all-trans-RAL levels in the retina and prevent retina degeneration. Stability of these conjugates is an important factor that can determine biological activity of the drugs. To standardize conditions of Schiff-base formation all reactions were performed in 90% ethanol in water buffered with 0.1 M phosphate buffer, pH 7.0. Stock solution of retinal was made up freshly in ethanol. Its final concentration was determined spectrophotometrically at 380 nm (ε=42,880). All procedures were carried out in the dark. Schiff base formation was initiated by addition of retinal stock solution to a 2 molar excess of tested amine dissolved in the reaction buffer. The reaction mixture was incubated for 1 h in room temperature.
Steady-state rate of Schiff-base formation was obtained from absorbance changes at 380 and 440 nm (510 nm for aromatic amines) corresponding to free retinal and protonated Schiff base, respectively. To investigate stability of the given retinal conjugates a mixture of HPLC purified Schiff base of selected compound and phosphatidylocholine was dried down in SpeedVac. Then, Schiff-base and lipids were overlaid with 0.1 M phosphate buffer and sonicated immediately to form liposomes. The samples were extracted with hexane following 30 min incubated in room temperature. The breakdown of Schiff-base was monitored by HPLC detection of free retinal extracted from the reaction mixture.
FIGS. 3-5 illustrate UV/Vis spectra for the FDA approved drugs. FDA approved drugs that were active readily formed a Schiff base with all-trans-RAL as evidenced by a substantial differential between spectra of unprotonated and protonated Schiff base.

SMILES	11cRAL (area) (ABCA4−/−/RDH8−/− mice)	effectiveness in treating retinal degeneration in the mice (Rdh8−/−Abca4−/− mice)	formation of stable Schiff-base with all-trans-RAL [1]	Score OCT (Rdh8−/−Abca4−/− mice)
COCCCC/C(=N\OCCN)c1ccc(C(F)(F)F)cc1 [Luvox]	175.5	effective in treating retinal degeneration		
CC(N)C12CC3CC(CC(C3)C1)C2 (stereo not drawn) [Flumadine]	135.3	effective in treating retinal degeneration		
N[C@@H]1CON=C1O [Seromycin]	159.9	effective in treating retinal degeneration	readily formed stable Schiff-bases	
Nc1ccc(C(=O)[O-])cc1.[K+] [Potaba]	90.6		did not readily form stable Schiff-bases	2.3
NCc1ccc(S(N)(=O)=O)cc1 [Sulfamylon]	166.1	effective in treating retinal degeneration		
CC(C)C[C@H](CN)CC(=O)O [Lyrica, (S)-3-(aminomethyl)-5-methylhexanoic acid]	166.5	effective in treating retinal degeneration	readily formed stable Schiff-bases	
Nc1ccc(O)c(C(=O)O)c1 [Asacol]	140.2	effective in treating retinal degeneration		
CCOC(=O)C1=C[C@@H](OC(CC)CC)[C@H](NC(C)=O)[C@@H](N)C1 [Tamiflu]	87.3			1.3
Nc1ccc(C(=O)O)c(O)c1 [Paser]	151.9	effective in treating retinal degeneration	readily formed stable Schiff-bases	
NS(=O)(=O)c1cc2c(cc1Cl)N=C[N-]S2(=O)=O.[Na+] [Sodium Diuril]	139.7	effective in treating retinal degeneration		
Nc1ccc(C(=O)NCC(=O)[O-])cc1.[Na+] [Aminohippurate Sodium]	109.4			1
NCCCC[C@H](N[C@@H](CCc1ccccc1)C(=O)O)C(=O)N1CCC[C@H]1C(=O)O [Prinivil]	132.7			2.0
CC(C)(S)[C@@H](N)C(=O)O [Cuprimine]	118.5		did not readily form stable Schiff-bases	1.7
N[C@@H](CC(=O)N1CCn2c(nnc2C(F)(F)F)C1)Cc1cc(F)c(F)cc1F [Januvia]	126.8	effective in treating retinal degeneration		
CC(C)C[C@@H](CN)CC(=O)O [(R)-3-(aminomethyl)-5-methylhexanoic acid]	164.8	effective in treating retinal degeneration		
CC12CC3CC(C)(C1)CC(N)(C3)C2 [Nameda]	97.6			1.7
Nc1ccc(S(=O)(=O)c2ccc(N)cc2)cc1 [Dapsone]	156.5	effective in treating retinal degeneration		

Reference: patent US10208049B2, “Compounds and methods of treating ocular disorders” (Case Western Reserve University, priority 2009, dated 2019)
